Results as given in patent US10946024B2, “Method for treating cancer” (Epizyme, Inc., priority 2014, dated 2021).

Columns and labels:
[1] = tested on: H3K27me3 in HS-SY-II xenograft; test: H3K27me3 by ELISA in HS-SY-II xenograft tumors harvested on Day 28 (second study); format: in vivo, mice; conditions: Day 28, 3 h after the last dose
Method: FIGS. 10A to 10C show mean in vivo tumor volumes for athymic nude mice bearing HS-SY-II xenografts. In a first study, mice were dosed with either vehicle (oral for 28 days or iv on Day 1 and Day 22), Compound A (oral: 125 mg/kg, 250 mg/kg, or 500 mg/kg for 28 days), or Doxorubicin (iv: 10 mg/kg, Day 1 and Day 22); tumor volumes were measured twice a week (FIGS. 10A and 10B). In a second study, mice were dosed with either vehicle (oral for 28 days), Compound A (oral: 250 mg/kg or 500 mg/kg for 28 days), Doxorubicin (iv: 10 mg/kg on Day 1 and Day 22), or a combination of Doxorubicin (iv: 10 mg/kg on Day 1 and Day 22) and Compound A (oral: 250 mg/kg for 28 days) (FIG. 10C). Tumors from animals of the second study were harvested on Day 28 (3 h after the last dose) and subjected to H3K27me3 analysis by ELISA (FIG. 10D) or IHC for the proliferation marker Ki67 (FIG. 10E).
For FIG. 10D, tumors were snap-frozen in liquid nitrogen. […] Histones were quantified using the BCA protein assay (23225, Pierce). […] Subsequently, the developed colors in the wells were measured using a plate spectrophotometer (SpectraMax 250, Molecular Devices) at 450 nm (reference wavelength 650 nm). The H3K27me3 levels were adjusted to total histone H3, and expressed as fold changes to vehicle control. […] Histones were extracted and quantified, and the levels of H3K27me3 were analyzed as described above. […]

[2] = tested on: H3K27me3 in HS-SY-II xenograft; test: H3K27me3 in tumor of HS-SY-II xenograft, 7 days twice daily oral dosing (ELISA); format: in vivo, mice; conditions: for H3K27me3 in tumor, Mean 2 (fold change to vehicle) / H3K27me3 in tumor, Mean Diff. vehicle vs. treated: 7 days; for H3K27me3 in tumor, Dunnett's test Significant?: alpha 0.05
Method: HS-SY-II cells were harvested during mid-log phase growth, and resuspended in Hank balanced salt solution with 50% Matrigel (BD Biosciences). Balb/C-nu mice (Charles River Laboratories Japan) received 1×10^7 cells (0.1 mL cell suspension) subcutaneously in the right flank. Mice carrying tumors of approximately 200 mm^3 (31 days after injection) were sorted into treatment groups with similar mean tumor volumes. Compound A or vehicle (0.5% MC+0.1% Tween-80 in water) was administered at the indicated doses on twice a day for 7 days by oral gavage. Each dose was delivered in a volume of 0.2 mL/20 g mouse (10 mL/kg), and adjusted for the last recorded weight of individual animals. Peripheral blood samples were collected at approximately 5 minutes before and 3 hours after the last dose from Compound A-treated mice. After obtaining plasma samples by centrifugation, the analysis for plasma concentrations of Compound A was conducted by the liquid chromatography-tandem mass spectrometry (LC/MS/MS) method. The UPLC system (Acquity, Waters) equipped with a mass spectrometer (Quattro premier, MICROMASS) was used for quantification of Compound A. The concentrations are plotted (n=5) in FIG. 7A. Each bar represents a mean of plasma concentration in each group.
For FIG. 10D, tumors were snap-frozen in liquid nitrogen. Frozen tumor samples were cut into a 20 mg pieces and placed in 500 μL of ice cold nuclear extraction buffer (10 mM Tris-HCl, 10 mM MgCl2, 25 mM KCl, 1% Triton X-100, 8.6% Sucrose, plus 1× Halt Protease inhibitor cocktail (1861281, Thermo Scientific)) and homogenized with a handy micro homogenizer. Nuclei were collected by centrifugation at 600 g for 5 minutes at 4° C. and washed once with ice cold PBS. Supernatant was removed and histones extracted for one hour with […] 0.4 N cold sulfuric acid. Extracts were clarified by centrifugation at 10,000 g for 10 minutes at 4° C. and transferred to a fresh microcentrifuge tube containing 1 mL of ice cold acetone. Histones were precipitated at −20° C. for overnight, pelleted by centrifugation at 10,000 g for 10 minutes and resuspended in 100 μl of water. Histones were quantified using the BCA protein assay (23225, Pierce). The diluted histones were coated on Immulon 4HBX plates (3855, Thermo Scientific) overnight and ELISA was performed. Briefly, after blocking with PBS containing 0.05% Tween 20 and 2% bovine serum albumin (BSA), the plates were incubated with H3K27me3 antibody (#9733, Cell Signaling Technology) or total histone H3 antibody (AB1791, Abcam). The plates were further incubated with horseradish peroxidase conjugated anti-rabbit IgG (#7074, Cell Signaling Technology), followed by incubated with TMB substrate (TMBS-0100-01, BioFx Laboratories). Subsequently, the developed colors in the wells were measured using a plate spectrophotometer (SpectraMax 250, Molecular Devices) at 450 nm (reference wavelength 650 nm). The H3K27me3 levels were adjusted to total histone H3, and expressed as fold changes to vehicle control. The values are plotted (n=6) in FIG. 10D. Each bar represents a mean of the values in each group. […] Histones were extracted and quantified, and the levels of H3K27me3 were analyzed as described above. Trimethylation levels of H3K27 in the tumor are plotted (n=5) in FIG. 7B. Each bar represents a mean±SEM of the trimethylation level in each group.

CCN(c1cc(-c2ccc(CN3CCOCC3)cc2)cc(C(=O)NCc2c(C)cc(C)[nH]c2=O)c1C)C1CCOCC1 [Compound A]
H3K27me3 levels in tumors [1]: significantly reduced
H3K27me3 in tumor, Dunnett's test Summary ([2]; 125 mg/kg): * * *
H3K27me3 in tumor, Mean 2 (fold change to vehicle) ([2]; 125 mg/kg oral twice daily): 0.7
H3K27me3 in tumor, Mean Diff. vehicle vs. treated ([2]; 125 mg/kg oral twice daily): 0.3
H3K27me3 in tumor, Dunnett's test Significant? ([2]; 125 mg/kg): Yes
H3K27me3 in tumor, Dunnett's test Summary ([2]; 250 mg/kg): * * *
H3K27me3 in tumor, Mean 2 (fold change to vehicle) ([2]; 250 mg/kg oral twice daily): 0.55
H3K27me3 in tumor, Mean Diff. vehicle vs. treated ([2]; 250 mg/kg oral twice daily): 0.45
H3K27me3 in tumor, Dunnett's test Significant? ([2]; 250 mg/kg): Yes
H3K27me3 in tumor, Dunnett's test Summary ([2]; 500 mg/kg): * * *
H3K27me3 in tumor, Mean 2 (fold change to vehicle) ([2]; 500 mg/kg oral twice daily): 0.304
H3K27me3 in tumor, Mean Diff. vehicle vs. treated ([2]; 500 mg/kg oral twice daily): 0.696
H3K27me3 in tumor, Dunnett's test Significant? ([2]; 500 mg/kg): Yes
H3K27me3 levels in tumor tissues ([2]; oral twice daily for 7 days): dose dependent decrease
